Results: US20230295152A1 (SENDA BIOSCIENCES, INC., priority 2019, published 2023)

How the values were obtained:
Format in all cases: in vitro ADME
[1] = Suspension Monkey heps ClInt; conditions: @1 and 0.1 mM
Source text: Compound Nos. 9 and 46 have the following in vitro DMPK profiles.

[2] = Plasma Protein Binding, dog; conditions: read-out: Plasma Protein Binding PPB (d) % (converted)
Procedure: (§1) Example 10: Plasma Protein Binding Determination with Ultracentrifugation Method
(§2) The frozen plasma (stored at −80° C.) was thawed in a 37° C. water bath, followed by centrifugation at 3,220 g for 10 minutes to remove clots. The supernatant was removed into a new tube as the spun plasma. The spun plasma was pre-warmed in a 37° C. water bath for 10 minutes. The stock solutions of test compounds were diluted to 200 μM in DMSO, and then spiked into the plasma. Duplicate samples were prepared. The final concentration of compound was 1.0 μM. The final concentration of organic solvent was 0.5%. Warfarin was used as positive control in the assay. 1.0 mL of the spiked plasma was transferred to a new balance ultracentrifuge tube. Samples were incubated at 37° C., 5% CO2 for 30 minutes. After incubation, the balance ultracentrifuge tubes were centrifuged at 600,000 g for 5.5 hours at 37° C. […]
(§3) Data Analysis: All calculations were carried out using Microsoft Excel. The concentrations of test compound in plasma samples and post-ultracentrifugation plasma was determined from peak areas. The percentages of test compound bound was calculated as follows: […]

[3] = Plasma Protein Binding, monkey; conditions: read-out: Plasma Protein Binding PPB (mon) % (converted)
Procedure: as §1, §2, §3

CYP = CYP Inhibition (in vitro DMPK profile, Table 52)
Procedure: Example 11: CYP Inhibition Assay
Stock solutions of test compounds were prepared in DMSO at the concentrations of 10 mM. Stock solution was diluted to 2 mM with acetonitrile. The final concentration of test compounds was 10 μM. For the stock solution preparation, if the positive control could not be well dissolved in the mixture of DMSO and acetonitrile (1:4) at the highest concentration, another mixture of acetonitrile and DMSO, the mixture of acetonitrile and H2O or DMSO will be used to dissolve the compound.
Data Analysis: The automatic peak integration areas are checked for all the samples. The Analyte Peak Area and Internal Standard Peak Area are exported into excel spreadsheet. The inhibition of each P450 enzyme in human liver microsomes is measured as the percentage decrease in the activity of marker metabolite formation compared to non-inhibited controls (=100% activity).

SMILES | Suspension Monkey heps ClInt (% Qh) [1] | fraction unbound at 5.5 h, 1 μM [2] | fraction unbound at 5.5 h, 1 μM [3] | CYP Inhibition (CYP)
CC(C)(O)Cn1cnc2c(-c3cccnc3)nc(-c3ccc(C(F)(F)F)nc3)cc2c1=O [Compound 9] | <24 (@1 and % Qh | 0.124 | 0.149 | Negative
C[C@@H](CO)n1cnc2c(-c3cccnc3)nc(-c3ccc(C(F)(F)F)cn3)cc2c1=O [Compound 46, (S)-3-(1-hydroxypropan-2-yl)-8-(pyridin-3-yl)-6-(5-(trifluoromethyl)pyridin-2-yl)pyrido[3,4-d]pyrimidin-4(3H)-one] | <24 (@1 and % Qh | 0.11 | 0.113 | Negative
